The record followed here is patent US6740038B2, “Systems and methods for assessing vascular effects of a treatment” (New Health Sciences, Inc., priority 2000, dated 2004).

The test system of the experiment is cerebral vessels. Conditions: person after first stroke, Plavix +/- calcium channel blocker. As to the method: A person with a history of hypertension experiences a first stroke in the left middle cerebral artery resulting in deficits in the right hand, leg, and some deficits in motor speech. These are the symptoms upon presentation in the neurological clinic. Transcranial Doppler analysis of all cerebral vessels is performed in addition to analyzing the common carotid artery and the internal carotid artery.
The physician considers prescription of Plavix together with a calcium channel blocker. Transcranial Doppler analysis was performed at monthly intervals. […] The physician subsequently administers a higher dose. Again, transcranial Doppler analysis is performed on all cerebral vessels.
The patient is then monitored on a monthly basis after the initial prescription of Plavix in order to determine whether vascular changes are occurring which necessitate alteration in the therapy.

Take `COC(=O)[C@H](c1ccccc1Cl)N1CCc2sccc2C1` [Plavix]: under “higher dose”, the auto-regulation curve entry was “left-shifts toward normal”, the pulsatility index entry is “decreases” and the “vascular dynamics of the vessel studied” value is given as “marked changes”. Besides, the “changes in the individual cerebral vessels” value (initial dose, transcranial Doppler at monthly intervals) is given as “no effect”.
